Assay results taken from the NIST ThermoML archive (doi:10.1016/j.jct.2006.05.004).
Numbers after ± are expanded uncertainties.

Tests used:
[1] = xn = mol fraction of the nth substance listed; details: 298.15 K, 101 kPa, Liquid
[2] = excess molar enthalpy (molar enthalpy of mixing); xn = mol fraction of the nth substance listed; details: 298.15 K, 101 kPa, Liquid

BrCCCCCCBr [1,6-dibromohexane] + COC=O
Details | excess molar enthalpy [kJ/mol] | mass density [kg/m3]
[1], x2 = 0.0951 | – | 1574.69 ± 5
[1], x2 = 0.1373 | – | 1561.81 ± 4.8
[1], x2 = 0.18 | – | 1547.9 ± 4.6
[1], x2 = 0.2331 | – | 1529.55 ± 4.4
[1], x2 = 0.3709 | – | 1475.52 ± 3.8
[1], x2 = 0.4924 | – | 1417.67 ± 3.2
[1], x2 = 0.5984 | – | 1357.11 ± 2.7
[1], x2 = 0.6952 | – | 1290.94 ± 2.3
[1], x2 = 0.799 | – | 1204.62 ± 1.7
[1], x2 = 0.8251 | – | 1179.95 ± 1.6
[1], x2 = 0.9038 | – | 1095.21 ± 1.2
[1], x2 = 0.9183 | – | 1078.3 ± 1.1
[1], x2 = 0.9504 | – | 1037.23 ± 0.97
[1], x2 = 0.9718 | – | 1007.96 ± 0.87
[2], x2 = 0.099 | 0.381 ± 0.0075 | –
[2], x2 = 0.2052 | 0.695 ± 0.012 | –
[2], x2 = 0.3188 | 0.966 ± 0.017 | –
[2], x2 = 0.4099 | 1.09 ± 0.018 | –
[2], x2 = 0.4481 | 1.13 ± 0.019 | –
[2], x2 = 0.5059 | 1.16 ± 0.02 | –
[2], x2 = 0.5777 | 1.16 ± 0.019 | –
[2], x2 = 0.6385 | 1.12 ± 0.019 | –
[2], x2 = 0.69 | 1.06 ± 0.018 | –
[2], x2 = 0.7201 | 1.01 ± 0.017 | –
[2], x2 = 0.7507 | 0.948 ± 0.016 | –
[2], x2 = 0.7946 | 0.851 ± 0.015 | –
[2], x2 = 0.8411 | 0.706 ± 0.013 | –
[2], x2 = 0.9115 | 0.451 ± 0.0087 | –
[2], x2 = 0.9775 | 0.14 ± 0.0042 | –

BrCCCCCCBr [1,6-dibromohexane] + CCCCC(=O)OC
Details | excess molar enthalpy [kJ/mol] | mass density [kg/m3]
[1], x2 = 0.0703 | – | 1557.19 ± 4.9
[1], x2 = 0.1394 | – | 1513.24 ± 4.5
[1], x2 = 0.2633 | – | 1432.4 ± 3.7
[1], x2 = 0.3222 | – | 1392.97 ± 3.4
[1], x2 = 0.3842 | – | 1350.7 ± 3
[1], x2 = 0.4472 | – | 1306.98 ± 2.7
[1], x2 = 0.5076 | – | 1264.24 ± 2.3
[1], x2 = 0.5698 | – | 1219.49 ± 2
[1], x2 = 0.6817 | – | 1136.77 ± 1.5
[1], x2 = 0.7372 | – | 1094.69 ± 1.3
[1], x2 = 0.8445 | – | 1011.22 ± 0.82
[1], x2 = 0.8993 | – | 967.47 ± 0.84
[1], x2 = 0.945 | – | 930.4 ± 0.93
[2], x2 = 0.0734 | 0.045 ± 0.0023 | –
[2], x2 = 0.1653 | 0.0758 ± 0.0027 | –
[2], x2 = 0.264 | 0.0903 ± 0.003 | –
[2], x2 = 0.3507 | 0.0949 ± 0.003 | –
[2], x2 = 0.418 | 0.0893 ± 0.0029 | –
[2], x2 = 0.4743 | 0.0782 ± 0.0028 | –
[2], x2 = 0.5227 | 0.0644 ± 0.0026 | –
[2], x2 = 0.5866 | 0.0437 ± 0.0022 | –
[2], x2 = 0.6386 | 0.0294 ± 0.002 | –
[2], x2 = 0.716 | 0.0105 ± 0.0017 | –
[2], x2 = 0.7966 | 0.0002 ± 0.0016 | –
[2], x2 = 0.879 | -0.0033 ± 0.0016 | –
[2], x2 = 0.9483 | -0.0005 ± 0.0016 | –

BrCCBr [1,2-dibromoethane] + COC(C)=O
Details | excess molar enthalpy [kJ/mol] | mass density [kg/m3]
[1], x2 = 0.0644 | – | 2093.03 ± 9
[1], x2 = 0.1265 | – | 2019.85 ± 8.2
[1], x2 = 0.186 | – | 1949.51 ± 7.4
[1], x2 = 0.2463 | – | 1877.44 ± 6.7
[1], x2 = 0.3093 | – | 1801.67 ± 6
[1], x2 = 0.3675 | – | 1731.26 ± 5.4
[1], x2 = 0.4309 | – | 1653.78 ± 4.7
[1], x2 = 0.4879 | – | 1583.49 ± 4.2
[1], x2 = 0.5507 | – | 1505.69 ± 3.6
[1], x2 = 0.6003 | – | 1443.71 ± 3.2
[1], x2 = 0.7248 | – | 1286.24 ± 2.2
[1], x2 = 0.7776 | – | 1218.54 ± 1.9
[1], x2 = 0.8338 | – | 1146.14 ± 1.5
[1], x2 = 0.8868 | – | 1076.96 ± 1.2
[1], x2 = 0.9443 | – | 1001.13 ± 0.84
[2], x2 = 0.0678 | 0.0977 ± 0.0031 | –
[2], x2 = 0.1329 | 0.167 ± 0.0042 | –
[2], x2 = 0.2086 | 0.225 ± 0.005 | –
[2], x2 = 0.2791 | 0.259 ± 0.0056 | –
[2], x2 = 0.3449 | 0.279 ± 0.0059 | –
[2], x2 = 0.4079 | 0.284 ± 0.006 | –
[2], x2 = 0.4651 | 0.274 ± 0.0058 | –
[2], x2 = 0.5145 | 0.258 ± 0.0055 | –
[2], x2 = 0.5219 | 0.254 ± 0.0055 | –
[2], x2 = 0.559 | 0.238 ± 0.0052 | –
[2], x2 = 0.5731 | 0.23 ± 0.0051 | –
[2], x2 = 0.6281 | 0.199 ± 0.0046 | –
[2], x2 = 0.6875 | 0.161 ± 0.004 | –
[2], x2 = 0.7492 | 0.12 ± 0.0034 | –
[2], x2 = 0.8149 | 0.087 ± 0.0029 | –
[2], x2 = 0.8808 | 0.0509 ± 0.0023 | –
[2], x2 = 0.9429 | 0.0264 ± 0.002 | –

BrCCCCCCBr [1,6-dibromohexane] + COC(C)=O
Details | excess molar enthalpy [kJ/mol] | mass density [kg/m3]
[1], x2 = 0.2073 | – | 1527.77 ± 4.4
[1], x2 = 0.2887 | – | 1489.28 ± 4
[1], x2 = 0.368 | – | 1448.7 ± 3.6
[1], x2 = 0.44 | – | 1408.44 ± 3.2
[1], x2 = 0.5134 | – | 1363.84 ± 2.9
[1], x2 = 0.5691 | – | 1327.2 ± 2.6
[1], x2 = 0.6301 | – | 1284.18 ± 2.3
[1], x2 = 0.7305 | – | 1205.44 ± 1.8
[1], x2 = 0.7765 | – | 1165.56 ± 1.6
[1], x2 = 0.8189 | – | 1126.42 ± 1.4
[1], x2 = 0.8614 | – | 1084.46 ± 1.2
[1], x2 = 0.8974 | – | 1046.81 ± 0.99
[1], x2 = 0.9345 | – | 1005.74 ± 0.82
[1], x2 = 0.9663 | – | 968.1 ± 0.88
[2], x2 = 0.1165 | 0.264 ± 0.0057 | –
[2], x2 = 0.2329 | 0.436 ± 0.0083 | –
[2], x2 = 0.317 | 0.544 ± 0.01 | –
[2], x2 = 0.4064 | 0.619 ± 0.011 | –
[2], x2 = 0.4865 | 0.652 ± 0.012 | –
[2], x2 = 0.553 | 0.651 ± 0.012 | –
[2], x2 = 0.6074 | 0.632 ± 0.011 | –
[2], x2 = 0.6546 | 0.6 ± 0.011 | –
[2], x2 = 0.6988 | 0.563 ± 0.01 | –
[2], x2 = 0.7443 | 0.519 ± 0.0096 | –
[2], x2 = 0.7905 | 0.453 ± 0.0086 | –
[2], x2 = 0.837 | 0.372 ± 0.0073 | –
[2], x2 = 0.8808 | 0.293 ± 0.0062 | –
[2], x2 = 0.9257 | 0.177 ± 0.0044 | –
[2], x2 = 0.9683 | 0.0857 ± 0.003 | –

BrCCCBr [1,3-dibromopropane] + CCCCC(=O)OC
Details | excess molar enthalpy [kJ/mol] | mass density [kg/m3]
[1], x2 = 0.0534 | – | 1896.4 ± 7.5
[1], x2 = 0.0937 | – | 1841.97 ± 7
[1], x2 = 0.1477 | – | 1771.31 ± 6.3
[1], x2 = 0.188 | – | 1720.07 ± 5.8
[1], x2 = 0.2439 | – | 1650.83 ± 5.2
[1], x2 = 0.2975 | – | 1586.35 ± 4.6
[1], x2 = 0.3439 | – | 1532.03 ± 4.2
[1], x2 = 0.4116 | – | 1455.16 ± 3.6
[1], x2 = 0.4656 | – | 1395.81 ± 3.1
[1], x2 = 0.5216 | – | 1335.88 ± 2.7
[1], x2 = 0.5922 | – | 1262.69 ± 2.2
[1], x2 = 0.6481 | – | 1206.41 ± 1.9
[1], x2 = 0.7047 | – | 1151.1 ± 1.6
[1], x2 = 0.7835 | – | 1076.35 ± 1.2
[1], x2 = 0.8493 | – | 1016.07 ± 0.85
[1], x2 = 0.9201 | – | 953.2 ± 0.89
[2], x2 = 0.0492 | 0.0239 ± 0.0019 | –
[2], x2 = 0.1163 | 0.0387 ± 0.0022 | –
[2], x2 = 0.1938 | 0.0407 ± 0.0022 | –
[2], x2 = 0.2736 | 0.0321 ± 0.0021 | –
[2], x2 = 0.338 | 0.0176 ± 0.0018 | –
[2], x2 = 0.41 | -0.0099 ± 0.0017 | –
[2], x2 = 0.4582 | -0.0311 ± 0.002 | –
[2], x2 = 0.4998 | -0.047 ± 0.0023 | –
[2], x2 = 0.5481 | -0.0609 ± 0.0025 | –
[2], x2 = 0.6786 | -0.0662 ± 0.0026 | –
[2], x2 = 0.7994 | -0.0551 ± 0.0024 | –
[2], x2 = 0.9065 | -0.0355 ± 0.0021 | –

BrCCCCBr [1,4-dibromobutane] + CCCCC(=O)OC
Details | excess molar enthalpy [kJ/mol] | mass density [kg/m3]
[1], x2 = 0.0627 | – | 1757.47 ± 6.4
[1], x2 = 0.1071 | – | 1711.91 ± 6
[1], x2 = 0.1637 | – | 1654.55 ± 5.4
[1], x2 = 0.2171 | – | 1601.18 ± 4.9
[1], x2 = 0.3252 | – | 1495.18 ± 4
[1], x2 = 0.4423 | – | 1383.13 ± 3.1
[1], x2 = 0.5031 | – | 1326.06 ± 2.7
[1], x2 = 0.621 | – | 1217.29 ± 2
[1], x2 = 0.6839 | – | 1160.44 ± 1.6
[1], x2 = 0.7415 | – | 1108.9 ± 1.3
[1], x2 = 0.8021 | – | 1055.26 ± 1.1
[1], x2 = 0.9296 | – | 944.62 ± 0.91
[2], x2 = 0.0592 | 0.0339 ± 0.0021 | –
[2], x2 = 0.1366 | 0.0579 ± 0.0025 | –
[2], x2 = 0.2206 | 0.0724 ± 0.0027 | –
[2], x2 = 0.3061 | 0.0674 ± 0.0026 | –
[2], x2 = 0.3802 | 0.0521 ± 0.0024 | –
[2], x2 = 0.4461 | 0.0237 ± 0.0019 | –
[2], x2 = 0.4526 | 0.0188 ± 0.0019 | –
[2], x2 = 0.4992 | -0.0052 ± 0.0016 | –
[2], x2 = 0.5566 | -0.0287 ± 0.002 | –
[2], x2 = 0.6213 | -0.0448 ± 0.0022 | –
[2], x2 = 0.6979 | -0.0485 ± 0.0023 | –
[2], x2 = 0.7947 | -0.0483 ± 0.0023 | –
[2], x2 = 0.9001 | -0.0314 ± 0.002 | –
